According to US10376481B2, “Compounds and methods for inhibiting NHE-mediated antiport in the treatment of disorders associated with fluid retention or salt overload and gastrointestinal tract disorders” (ARDELYX, INC, priority 2012, dated 2019):

Key:
[1] = system: absorption of sodium from the intestinal lumen; assay: Inhibition of intestinal sodium absorption: rat urinary sodium and fecal form 16 h post-dose; type: in vivo, Sprague-Dawley rats; conditions: oral gavage 10 mg/kg; for response vs control in vivo at 10 mg/kg: urine 16 h post-dose, read-out: uNa Result, uNa (% of vehicle); for FFS (fecal form score): 16 h post-dose, scale 1-5, group average
Experimental: Urinary sodium concentration and fecal form were measured to assess the ability of selected example compounds to inhibit the absorption of sodium from the intestinal lumen. Eight-week old Sprague-Dawley rats were purchased from Charles River Laboratories (Hollister, Calif.), were housed 2 per cage, and acclimated for at least 3 days before study initiation. Animals were fed Harlan Teklad Global 2018 rodent chow (Indianapolis, Ind.) and water ad libitum throughout the study and maintained in a standard light/dark cycle of 6 AM to 6 PM. On the day of the study, between 4 PM and 5 PM, a group of rats (n=6) were dosed via oral gavage with test compound or vehicle (water) at a volume of 10 mL/kg. After dose administration animals were placed in individual metabolic cages where they were also fed the same chow in meal form and watered ad libitum. At 16 h post-dose, the urine samples were collected and fecal form was assessed by two independent observations. Fecal forms were scored according to a common scale associated with increasing fecal water to the wettest observation in the cage's collection funnel (1, normal pellet; 2, pellet adhering to sides of collection funnel due to moisture; 3, loss of normal pellet shape; 4, complete loss of shape with a blotting pattern; 5, liquid fecal streams evident). A rat's fecal form score (FFS) was determined by averaging both observational scores for all rats within a group (n=6). The vehicle group average was 1. For urine samples, the volumes were determined gravimetrically and centrifuged at 3,600×g. The supernatants were diluted 100-fold in deionized Milli-Q water then filtered through a 0.2 μm GHP Pall AcroPrep filter plate (Pall Life Sciences, Ann Arbor, Mich.) prior to analysis by ion chromatography. Ten microliters of each filtered extract was injected onto a Dionex ICS-3000 ion chromatograph system (Dionex, Sunnyvale, Calif.). Cations were separated by an isocratic method using 25 mM methanesulfonic acid as the eluent on an IonPac CS12A 2 mm i.d.×250 mm, 8 μm particle size cation exchange column (Dionex). Sodium was quantified using standards prepared from a cation standard mix containing Li^+, Na^+, NH4^+, K^+, Mg^2+, and Ca^2+ (Dionex). The mean mass of sodium urinated for every group in the 16 h period was determined with the vehicle group usually urinating approximately 21 mg sodium. The urine Na (uNa) for rats in the test groups were expressed as a percentage of the vehicle mean and the means were compared to that of the vehicle group by utilizing a one-way analysis of variance coupled with a Dunnett's post hoc test.

human NHE3 = target: T1, human NHE3 (Homo sapiens, UniProt P48764); assay: Cell-based assay of NHE-3 activity (pre-incubation inhibition), human; conditions: for IC50: PS120 fibroblasts stably expressing human NHE3, 10 min pre-incubation with 0-30 μM test compound, read-out: pIC50 (human Preincubation assay) (converted); for % inhibition (human Preincubation assay): PS120 fibroblasts stably expressing human NHE3, pre-incubation with test compound
T1 sequence (P48764 26-834): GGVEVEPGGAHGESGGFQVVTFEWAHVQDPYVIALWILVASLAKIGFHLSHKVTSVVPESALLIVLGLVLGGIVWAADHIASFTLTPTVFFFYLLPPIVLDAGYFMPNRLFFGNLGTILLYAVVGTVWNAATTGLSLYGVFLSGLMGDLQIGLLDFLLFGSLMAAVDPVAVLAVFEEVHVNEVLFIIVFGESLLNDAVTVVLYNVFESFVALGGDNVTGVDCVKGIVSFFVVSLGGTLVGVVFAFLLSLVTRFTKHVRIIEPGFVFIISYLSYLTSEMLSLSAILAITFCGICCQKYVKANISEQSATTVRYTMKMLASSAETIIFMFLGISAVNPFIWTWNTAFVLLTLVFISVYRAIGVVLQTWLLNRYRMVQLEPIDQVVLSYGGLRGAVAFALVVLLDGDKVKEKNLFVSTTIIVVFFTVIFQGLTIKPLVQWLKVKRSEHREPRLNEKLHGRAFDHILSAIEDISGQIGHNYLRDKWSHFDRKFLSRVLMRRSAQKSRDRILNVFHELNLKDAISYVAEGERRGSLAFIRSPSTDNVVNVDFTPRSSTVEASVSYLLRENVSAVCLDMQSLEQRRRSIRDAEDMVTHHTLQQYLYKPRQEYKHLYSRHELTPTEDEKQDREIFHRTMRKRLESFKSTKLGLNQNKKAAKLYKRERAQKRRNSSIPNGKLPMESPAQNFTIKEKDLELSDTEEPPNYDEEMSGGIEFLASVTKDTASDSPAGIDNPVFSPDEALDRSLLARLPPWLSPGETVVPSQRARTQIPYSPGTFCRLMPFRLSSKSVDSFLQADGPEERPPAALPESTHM
Experimental: Rat and human NHE-3-mediated Na^+-dependent H^+ antiport was measured using a modification of the pH sensitive dye method originally reported by Paradiso (Proc. Natl. Acad. Sci. USA. (1984) 81(23): 7436-7440, which is hereby incorporated by reference in its entirety). PS120 fibroblasts stably expressing human NHE3 were obtained from Mark Donowitz (Baltimore, Md.). Opossum kidney (OK) cells were obtained from the ATCC and propagated per their instructions. The rat NHE-3 gene (GenBank M85300) was introduced into OK cells via electroporation, and cells were seeded into 96 well plates and grown overnight. Medium was aspirated from the wells then incubated for 30 min at 37° C. with NH4Cl-HEPES buffer (20 mM NH4Cl, 80 mM NaCl, 50 mM HEPES, 5 mM KCl, 2 mM CaCl2, 1 mM MgCl2, pH 7.4) containing 5 μM BCECF-AM. Cells were washed once with Ammonium free, Nat-free HEPES (100 mM choline, 50 mM HEPES, 10 mM glucose, 5 mM KCl, 2 mM CaCl2, 1 mM MgCl2, pH 7.4) and incubated in the same buffer for 10 minutes at room temperature to lower intracellular pH with 0-30 μM test compound. […] Changes in intracellular pH were monitored using a FLIPR Tetra® (Molecular Devices, Sunnyvale, Calif.) by excitation at λex 439 to 505 nm, and measuring BCECF fluorescence at λem 538 nm. The initial rate of the fluorescence ratio change was used as a measure of NHE-mediated Na^+/H^+ activity, and reported as the change in fluorescence ratio per minute. Initial rates were plotted as the average 2 or more replicates, and pIC50 values were estimated using GraphPad Prism.

| IC50 (human NHE3) [nM] | % inhibition (human Preincubation assay) (human NHE3) | SMILES | response vs control in vivo at 10 mg/kg [1] [%] | FFS (fecal form score) [1] |
| --- | --- | --- | --- | --- |
| < 100 | C (>70%) | CN(C)[C@H]1Cc2c(F)cc(Cl)cc2[C@@H]1Oc1ccc(S(=O)(=O)NCCOCCOCCNC(=O)NCCCCNC(=O)NCCOCCOCCNS(=O)(=O)c2ccc(O[C@H]3c4cc(Cl)cc(F)c4C[C@@H]3N(C)C)cc2)cc1 [Example 25] | > 75 | – |
| < 100 | C (>70%) | O=C(NCCCCNC(=O)NCCOCCOCCNS(=O)(=O)c1ccc(O[C@H]2c3cc(Cl)cc(F)c3C[C@@H]2N2CC[C@@H](O)C2)cc1)NCCOCCOCCNS(=O)(=O)c1ccc(O[C@H]2c3cc(Cl)cc(F)c3C[C@@H]2N2CC[C@@H](O)C2)cc1 [Example 4, (S,S,R)—N,N′-(10,17-dioxo-3,6,21,24-tetraoxa-9,11,16,18-tetraazahexacosane-1,26-diyl)bis(4-((1S,2S)-6-chloro-4-fluoro-2-((R)-3-hydroxypyrrolidin-1-yl)-2,3-dihydro-1H-inden-1-yloxy)benzenesulfonamide)] | > 75 | 1 |
| < 100 | B (40-70%) | O=C(NCCCCNC(=O)NCCOCCOCCNS(=O)(=O)c1ccc(O[C@H]2c3cc(Cl)cc(Cl)c3C[C@@H]2N2CCCCC2)cc1)NCCOCCOCCNS(=O)(=O)c1ccc(O[C@H]2c3cc(Cl)cc(Cl)c3C[C@@H]2N2CCCCC2)cc1 [Example 15] | 35 to 75 | – |
| < 100 | C (>70%) | O=C(NCCCCNC(=O)NCCOCCOCCNS(=O)(=O)c1ccc(O[C@H]2c3cc(F)ccc3C[C@@H]2N2CCCCC2)cc1)NCCOCCOCCNS(=O)(=O)c1ccc(O[C@H]2c3cc(F)ccc3C[C@@H]2N2CCCCC2)cc1 [Example 23] | > 75 | 1 |
| < 100 | C (>70%) | O=C(NCCCCNC(=O)NCCOCCOCCNS(=O)(=O)c1ccc(O[C@H]2c3ccccc3C[C@@H]2N2CCCCC2)cc1)NCCOCCOCCNS(=O)(=O)c1ccc(O[C@H]2c3ccccc3C[C@@H]2N2CCCCC2)cc1 [Example 14] | 35 to 75 | – |
| < 100 | C (>70%) | O=C(NCCCCNC(=O)NCCOCCOCCNS(=O)(=O)c1ccc(O[C@H]2c3cc(Cl)cc(F)c3C[C@@H]2N2CCCCC2)cc1)NCCOCCOCCNS(=O)(=O)c1ccc(O[C@H]2c3cc(Cl)cc(F)c3C[C@@H]2N2CCCCC2)cc1 [Example 24] | > 75 | – |

Continued, compound first:

| SMILES | IC50 (human NHE3) [nM] | % inhibition (human Preincubation assay) (human NHE3) | response vs control in vivo at 10 mg/kg [1] [%] | FFS (fecal form score) [1] |
| --- | --- | --- | --- | --- |
| CN(C)[C@H]1Cc2ccccc2[C@@H]1Oc1ccc(S(=O)(=O)NCCOCCOCCNC(=O)NCCCCNC(=O)NCCOCCOCCNS(=O)(=O)c2ccc(O[C@H]3c4ccccc4C[C@@H]3N(C)C)cc2)cc1 [Example 20] | < 100 | C (>70%) | 35 to 75 | – |
| CN(C)[C@H]1Cc2c(Cl)cc(Cl)cc2[C@@H]1Oc1ccc(S(=O)(=O)NCCOCCOCCNC(=O)C(C)(C)C(=O)NCCOCCOCCNS(=O)(=O)c2ccc(O[C@H]3c4cc(Cl)cc(Cl)c4C[C@@H]3N(C)C)cc2)cc1 [Example 36] | 100 to 1000 | C (>70%) | 35 to 75 | 2 |
| CN(C)[C@H]1Cc2ccc(Cl)cc2[C@@H]1Oc1ccc(S(=O)(=O)NCCOCCOCCNC(=O)NCCCCNC(=O)NCCOCCOCCNS(=O)(=O)c2ccc(O[C@H]3c4cc(Cl)ccc4C[C@@H]3N(C)C)cc2)cc1 [Example 21] | < 100 | C (>70%) | > 75 | – |
| CN(C)[C@H]1Cc2c(Cl)cc(Cl)cc2[C@@H]1Oc1ccc(S(=O)(=O)NCCOCCOCCNC(=O)[C@H](O)[C@@H](O)C(=O)NCCOCCOCCNS(=O)(=O)c2ccc(O[C@H]3c4cc(Cl)cc(Cl)c4C[C@@H]3N(C)C)cc2)cc1 [Example 5, (2R,3R)—N1,N4-bis(2-(2-(2-(4-((1S,2S)-4,6-dichloro-2-(dimethylamino)-2,3-dihydro-1H-inden-1-yloxy)phenylsulfonamido)ethoxy)ethoxy)ethyl)-2,3-dihydroxysuccinamide] | < 100 | C (>70%) | < 35 | 1 |
| CN(C)[C@H]1Cc2ccc(F)cc2[C@@H]1Oc1ccc(S(=O)(=O)NCCOCCOCCNC(=O)NCCCCNC(=O)NCCOCCOCCNS(=O)(=O)c2ccc(O[C@H]3c4cc(F)ccc4C[C@@H]3N(C)C)cc2)cc1 [Example 22] | < 100 | C (>70%) | > 75 | – |
| O=C(NCCCCNC(=O)NCCOCCOCCNC(=O)Nc1cccc(O[C@H]2c3ccccc3C[C@@H]2N2CCCCC2)c1)NCCOCCOCCNC(=O)Nc1cccc(O[C@H]2c3ccccc3C[C@@H]2N2CCCCC2)c1 [Example 13, 1-{2-[2-(2-{[(3-{[(1S,2S)-2-(piperidin-1-yl)-2,3-dihydro-1H-inden-1-yl]oxy}phenyl)carbamoyl]amino}ethoxy)ethoxy]ethyl}-3-{4-[({2-[2-(2-{[(3-{[(1S,2S)-2-(piperidin-1-yl)-2,3-dihydro-1H-inden-1-yl]oxy}phenyl)carbamoyl]amino}ethoxy)ethoxy]ethyl}carbamoyl)amino]butyl}urea] | > 1000 | C (>70%) | > 75 | – |
| O=C(NCCCCNC(=O)NCCOCCOCCOCCNS(=O)(=O)c1ccc(O[C@H]2c3ccccc3C[C@@H]2N2CCCCC2)cc1)NCCOCCOCCOCCNS(=O)(=O)c1ccc(O[C@H]2c3ccccc3C[C@@H]2N2CCCCC2)cc1 [Example 16] | < 100 | C (>70%) | < 35 | – |
